Experimental data: patent US5484940A, “Substituted 3-indolyl-5-pyrazolone compounds” (priority 1994, dated 1996)

Legend:
[1] = system: β-amyloid peptide production; test: Cellular screen for inhibitors of β-amyloid production (ELISA, 293 751 SWE cells); type: cell-based, human; conditions: 2 h pretreatment + 2 h, normalized for cytotoxicity (MTT), concentration not given
Experimental: (§1) This screening assay employed cells (K293=human kidney cell line) which were stably transfected with the gene for amyloid precursor protein 751 (APP751) containing the double mutation Lys651 Met652 to Asn651 Leu652 (APP751 numbering) in the manner described in International Patent Application Publication No. 94/10569^1 and Citron et al.^16. This mutation is commonly called the Swedish mutation and the cells, designated as "293 751 SWE", were plated in Coming 96-well plates at 1.5-2.5×10^4 cells per well in Dulbecco's minimal essential media plus 10% fetal bovine serum. Cell number is important in order to achieve β-amyloid ELISA results within the linear range of the assay (~0.2 to 2.5 ng per mL).
Following overnight incubation at 37° C. in an incubator equilibrated with 10% carbon dioxide, media were removed and replaced with 200 μL of a substituted 3-indolyl-5-pyrazolone (drug) containing media per well for a two hour pretreatment period and cells were incubated as above.
At the end of the pretreatment period, the media were again removed and replaced with fresh drag containing media as above and cells were incubated for an additional two hours. After treatment, plates were centrifuged in a Beckman GPR at 1200 rpm for five minutes at room temperature to pellet cellular debris from the conditioned media. From each well, 100 μL of conditioned media or appropriate dilutions thereof were transferred into an ELISA plate precoated with antibody 266 against amino acids 13-28 of β-amyloid peptide as described in International Patent Application Publication No. 94/10569^1 and stored at 4° C. overnight. An ELISA assay employing labelled antibody 6C6 against amino acids 1-16 of β-amyloid peptide was run the next day to measure the amount of β-amyloid peptide produced.
The results of the β-amyloid peptide ELISA were fit to a standard curve and expressed as ng/mL β-amyloid peptide. […] All results are the mean and standard deviation of at least six replicate assays.

293 751 SWE cells = test: Cytotoxicity (MTT) in 293 751 SWE cells; type: cell-based, human; conditions: concentration not given
Experimental: as §1
Cytotoxic effects of the compounds were measured by a modification of the method of Hansen, et al.^17. To the cells remaining in the tissue culture plate was added 25 μL of a 3,(4,5-dimethylthiazol-2-yl)2,5-diphenyltetrazolium bromide (MTT) stock solution (5 mg/mL) to a final concentration of 1 mg/mL. Cells were incubated at 37° C. for one hour, and cellular activity was stopped by the addition of an equal volume of MTT lysis buffer (20% w/v sodium dodecylsulfate in 50% dimethylformamide, pH 4.7). Complete extraction was achieved by overnight shaking at room temperature. The difference in the OD562nm and the OD650nm was measured in a Molecular Device's UVmax microplate reader as an indicator of the cellular viability.

| Structure (SMILES) | reduction of β-amyloid peptide production as compared to control [1] | cytotoxic effect on the 293 751 SWE cells (293 751 SWE cells) |
| --- | --- | --- |
| COc1ccc2c(c1)c(CC1=NN(C3CCCC3)C(=O)C1)c(C)n2C(=O)c1ccc(Cl)cc1 [Example 11, 3-[1-(4-chlorobenzoyl)-5-methoxy-2-methyl-3-indolylmethyl]-1-cyclopentyl-5-pyrazolone] | at least 20% | did not have a significant cytotoxic effect |
| COc1ccc2c(c1)c(CC1=NN(C3CCCCCC3)C(=O)C1)c(C)n2C(=O)c1ccc(Cl)cc1 [Example 12, 3-[1-(4-chlorobenzoyl)-5-methoxy-2-methyl-3-indolylmethyl]-1-cycloheptyl-5-pyrazolone] | at least 20% | did not have a significant cytotoxic effect |
| COc1ccc2c(c1)c(CC1=NN(Cc3ccccc3)C(=O)C1)c(C)n2C(=O)c1ccc(Cl)cc1 [Example 13, 3-[1-(4-chlorobenzoyl)-5-methoxy-2-methyl-3-indolylmethyl]-1-benzyl-5-pyrazolone] | at least 20% | did not have a significant cytotoxic effect |
| CCCC(CCC)N1N=C(Cc2c(C)n(C(=O)c3ccc(Cl)cc3)c3ccc(OC)cc23)CC1=O [Example 16, 3-[1-(4-chlorobenzoyl)-5-methoxy-2-methyl-3-indolylmethyl]-1-(4-heptyl)-5-pyrazolone] | at least 20% | did not have a significant cytotoxic effect |
| COc1ccc2[nH]c(C)c(CC3=NN(C4CCCCC4)C(=O)C3)c2c1 [Example 17, 3-(5-methoxy-2-methyl-3-indolylmethyl)-1-cyclohexyl-5-pyrazolone] | at least 20% | did not have a significant cytotoxic effect |
| COc1ccc2c(c1)c(CC1=NN(C3CCCCC3)C(=O)C1)c(C)n2Cc1ccccc1 [Example 20, 3-(1-benzyl-5-methoxy-2-methyl-3-indolylmethyl)-1-cyclohexyl-5-pyrazolone] | at least 20% | did not have a significant cytotoxic effect |
| COc1ccc2c(c1)c(CCC1=NN(C3CCCCC3)C(=O)C1)c(C)n2C(=O)c1ccc(Cl)cc1 [Example 21, 3-[1-(4-chlorobenzoyl)-5-methoxy-2-methyl-3-indolylethyl]-1-cyclohexyl-5-pyrazolone] | at least 20% | did not have a significant cytotoxic effect |
| Cc1c(CC2=NN(C3CCCCC3)C(=O)C2)c2ccccc2n1C(=O)c1ccc(Cl)cc1 [Example 22, 3-[1-(4-chlorobenzoyl)-2-methyl-3-indolylmethyl]-1-cyclohexyl-5-pyrazolone] | at least 20% | did not have a significant cytotoxic effect |
| COc1ccc2c(c1)c(CC1=NN(c3cccc(Br)c3)C(=O)C1)c(C)n2C(=O)c1ccc(Cl)cc1 [Example 28, 3-[1-(4-chlorobenzoyl)-5-methoxy-2-methyl-3-indolylmethyl]-1-(3-bromophenyl)-5-pyrazolone] | < 20% | – |
| COc1ccc2c(c1)c(CC1=NN(c3cc(C)cc(C)c3)C(=O)C1)c(C)n2C(=O)c1ccc(Cl)cc1 [Example 29, 3-[1-(4-chlorobenzoyl)-5-methoxy-2-methyl-3-indolylmethyl]-1-(3,5-dimethylphenyl)-5-pyrazolone] | at least 20% | did not have a significant cytotoxic effect |
| COc1ccc2c(c1)c(CC1=NN(c3ccc(C(F)(F)F)cc3)C(=O)C1)c(C)n2C(=O)c1ccc(Cl)cc1 [Example 37, 3-[1-(4-chlorobenzoyl)-5-methoxy-2-methyl-3-indolylmethyl]-1-(4-trifluoromethylphenyl)-5-pyrazolone] | at least 20% | did not have a significant cytotoxic effect |
| COc1ccc2c(c1)c(CC1=NN(C3CCCCC3)C(=O)C1)c(C)n2C(=O)c1ccc(Cl)c(Cl)c1 [Example 39, 3-[1-(3,4-dichlorobenzoyl)-5-methoxy-2-methyl-3-indolylmethyl]-1-cyclohexyl-5-pyrazolone] | at least 20% | did not have a significant cytotoxic effect |
| COc1ccc2c(c1)c(CC1=NN(c3cccc(NC(C)=O)c3)C(=O)C1)c(C)n2C(=O)c1ccc(Cl)cc1 [Example 41, 3-[1-(4-chlorobenzoyl)-5-methoxy-2-methyl-3-indolylmethyl]-1-(3-acetamidophenyl)-5-pyrazolone] | < 20% | – |
| COc1ccc2c(c1)c(CC1=NN(C3CCCCC3)C(=O)C1C)c(C)n2C(=O)c1ccc(Cl)cc1 (centres unmarked) [Example 43, 3-[1-(4-chlorobenzoyl)-5-methoxy-2-methyl-3-indolylmethyl]-1-cyclohexyl-4-methyl-5-pyrazolone] | at least 20% | did not have a significant cytotoxic effect |
| COc1ccc2c(c1)c(CC1=NN(C3CCCCC3)C(=O)C1(C)C)c(C)n2C(=O)c1ccc(Cl)cc1 [Example 44, 3-[1-(4-chlorobenzoyl)-5-methoxy-2-methyl-3-indolylmethyl]-1-cyclohexyl-4,4-dimethyl-5-pyrazolone] | at least 20% | did not have a significant cytotoxic effect |
| COc1ccc2c(c1)c(CC1=NN(C)C(=O)C1)c(C)n2C(=O)c1ccc(Cl)cc1 [Example 46, 3-[1-(4-chlorobenzoyl)-5-methoxy-2-methyl-3-indolylmethyl]-1-methyl-5-pyrazolone] | at least 20% | did not have a significant cytotoxic effect |
| O=C1CC(CCCc2c[nH]c3ccccc23)=NN1C1CCCCC1 [Example 49, 3-[3-indolyl-n-propyl]-1-cyclohexyl-5-pyrazolone] | at least 20% | did not have a significant cytotoxic effect |
| COc1ccc2c(c1)c(CC1=NN(c3cccc(C(F)(F)F)c3)C(=O)C1)c(C)n2C(=O)c1ccc2ccccc2c1 [Example 51] | at least 20% | did not have a significant cytotoxic effect |
| COc1ccc2c(c1)c(CC1=NN(c3cccc(C(F)(F)F)c3)C(=O)C1)c(C)n2C(=O)c1ccccc1 [Example 53, 3-[1-benzoyl-5-methoxy-2-methyl-3-indolylmethyl]-1-(3-trifluoromethylphenyl)-5-pyrazolone] | at least 20% | did not have a significant cytotoxic effect |
| COc1ccc2c(c1)c(CC1=NN(c3ccc(C(F)(F)F)cc3)C(=O)C1)c(C)n2C(=O)c1ccc(C#N)cc1 [Example 55, 3-[1-(4-cyanobenzoyl)-5-methoxy-2-methyl-3-indolylmethyl]-1-(4-trifluoromethylphenyl)-5-pyrazolone] | at least 20% | did not have a significant cytotoxic effect |
